The results in this text go back to ChEMBL document CHEMBL1133432, “Probes for imidazoline binding sites: synthesis and evaluation of a selective, irreversible I2 ligand” (Bioorg Med Chem Lett, 2000).

Experiment [1] is described as follows: Inhibition of 1 nM [3H]2-BFI binding to rat whole brain membrane imidazoline receptor I-2.
The target of experiment [2] is T1, Adrenergic receptor alpha-2 (Rattus norvegicus, UniProt P22086+P19328+P22909).
T1 sequence (P22086 whole entry): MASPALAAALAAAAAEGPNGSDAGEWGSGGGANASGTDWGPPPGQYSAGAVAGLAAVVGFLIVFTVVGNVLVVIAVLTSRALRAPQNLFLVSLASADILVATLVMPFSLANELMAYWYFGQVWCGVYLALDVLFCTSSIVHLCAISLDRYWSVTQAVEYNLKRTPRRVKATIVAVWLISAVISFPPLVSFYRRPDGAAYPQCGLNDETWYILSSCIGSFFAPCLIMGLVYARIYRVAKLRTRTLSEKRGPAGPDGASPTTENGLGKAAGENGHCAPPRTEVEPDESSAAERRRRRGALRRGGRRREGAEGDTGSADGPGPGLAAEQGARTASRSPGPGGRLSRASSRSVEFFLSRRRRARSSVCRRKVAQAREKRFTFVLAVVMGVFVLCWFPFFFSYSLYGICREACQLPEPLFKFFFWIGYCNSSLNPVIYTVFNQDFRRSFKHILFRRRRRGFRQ
T1 sequence (P19328 whole entry): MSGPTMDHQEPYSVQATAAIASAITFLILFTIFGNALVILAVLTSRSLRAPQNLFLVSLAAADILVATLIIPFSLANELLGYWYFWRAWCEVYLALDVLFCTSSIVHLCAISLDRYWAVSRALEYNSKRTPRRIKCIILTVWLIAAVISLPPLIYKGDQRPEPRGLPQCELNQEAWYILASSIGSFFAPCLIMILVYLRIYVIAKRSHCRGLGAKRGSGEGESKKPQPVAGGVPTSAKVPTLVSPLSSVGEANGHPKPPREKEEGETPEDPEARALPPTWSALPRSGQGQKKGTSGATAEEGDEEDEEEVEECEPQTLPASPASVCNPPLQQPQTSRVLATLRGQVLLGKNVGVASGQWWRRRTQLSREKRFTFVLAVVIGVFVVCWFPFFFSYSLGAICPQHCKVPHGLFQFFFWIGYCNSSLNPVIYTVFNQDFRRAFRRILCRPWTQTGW
T1 sequence (P22909 whole entry): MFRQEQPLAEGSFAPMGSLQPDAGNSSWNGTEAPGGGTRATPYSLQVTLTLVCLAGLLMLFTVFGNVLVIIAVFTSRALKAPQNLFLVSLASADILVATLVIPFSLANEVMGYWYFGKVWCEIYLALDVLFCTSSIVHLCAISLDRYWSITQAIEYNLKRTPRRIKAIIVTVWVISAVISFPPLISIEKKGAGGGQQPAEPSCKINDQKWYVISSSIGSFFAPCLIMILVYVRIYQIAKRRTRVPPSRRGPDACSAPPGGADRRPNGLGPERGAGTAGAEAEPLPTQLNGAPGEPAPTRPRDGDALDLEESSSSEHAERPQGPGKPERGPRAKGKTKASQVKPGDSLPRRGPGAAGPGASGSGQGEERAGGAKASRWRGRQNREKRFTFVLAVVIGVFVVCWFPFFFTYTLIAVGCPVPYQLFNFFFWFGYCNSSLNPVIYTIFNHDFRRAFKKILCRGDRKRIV
Briefly: Inhibition of 1 nM [3H]RX-821002 binding to rat whole brain membrane Alpha-2 adrenergic receptors.

Take `N#CSc1ccc2oc(C3=NCCN3)cc2c1`: the values for the Ki in experiment [1] and in experiment [2] were 2.3 nM and 16300 nM, respectively.

`c1ccc2oc(C3=NCCN3)cc2c1`: the results for the inhibitory constant (Ki) in experiment [1] and in experiment [2] were 1.7 nM and 1900 nM, respectively.
